PMC6835763, “Influence of Short Cationic Lipopeptides with Fatty Acids of Different Chain Lengths on Bacterial Biofilms Formed on Polystyrene and Hydrogel Surfaces” (Pharmaceutics, 2019)
In brackets after ≈: the same amount, converted by molar mass. Where a SMILES comes first, the peptide text is derived from it. Bridges are numbered along the chain shown (N, C = ends). Roman numbers before positions name the chains, in order. The star is where a group is joined. Palmitoyl = CCCCCCCCCCCCCCCC(=O)*; Lauroyl = CCCCCCCCCCCC(=O)*

How the values were obtained:
[1] = system: Enterococcus faecalis ATCC 29212; format: cell-based; conditions: ATCC 29212, 24 h
Experimental: (§1) The biofilms of bacteria associated with the biofilm-related infections were cultured on 96-well flat bottom PS and on CL placed in 24-well plates. The bacteria at initial inoculums of 5 × 10^8 CFU/mL in MHB II were added to the plates and incubated at 37 °C under aerobic conditions. After 24 h of incubation, all cultures were rinsed three times with PBS and fresh medium was added. Subsequently, the obtained biofilm cultures were exposed to solutions of antimicrobials applied at graded concentrations ranging from 1 to 512 μg/mL for 24 h at 37 °C. The anti-biofilm activity of antimicrobials was visualized by resazurin (final concentration per sample = 0.005%) in the same way as in the MBFIC assay. All experiments were performed in triplicate and included growth controls (positive control: bacterial suspension without antimicrobials) and sterility controls (negative controls: sterile MBH II medium).

[2] = system: Staphylococcus epidermidis ATCC 14990; format: cell-based; conditions: ATCC 14990, 24 h
Experimental: as §1

[3] = system: Pseudomonas aeruginosa ATCC 9027; format: cell-based; conditions: ATCC 9027, 24 h
Experimental: as §1

[4] = system: Staphylococcus aureus ATCC 25923; format: cell-based; conditions: ATCC 25923, 24 h
Experimental: as §1

[5] = system: Escherichia coli ATCC 25922; format: cell-based; conditions: ATCC 25922, 24 h
Experimental: as §1

[6] = system: Proteus mirabilis PCM 543; format: cell-based; conditions: PCM 543, 24 h
Experimental: as §1

[7] = system: Enterococcus faecalis ATCC 29212; format: cell-based; conditions: ATCC 29212, 18 h
Experimental: (§2) The reference strains of gram-positive and gram-negative bacteria (Table 2) were obtained from the Polish Collection of Microorganisms (Polish Academy of Science, Wroclaw, Poland). The microorganisms were cultured in Muller Hinton Broth II (MHB II, Biocorp, Warsaw, Poland), overnight, at 37 °C. The MICs of synthetic lipopeptides and conventional antimicrobials were determined using the broth microdilution method according to the Clinical and Laboratory Standard Institute (CLSI) guidelines on reference strains. […] The PS were incubated under aerobic conditions at 37 °C for 18 h. The MIC (μg/mL) was assumed as the lowest concentration of the compound that inhibited the growth of the microorganisms. All experiments were performed in triplicate and included the growth and sterility controls.

[8] = system: Staphylococcus epidermidis ATCC 14990; format: cell-based; conditions: ATCC 14990, 18 h
Experimental: as §2

[9] = system: Pseudomonas aeruginosa ATCC 9027; format: cell-based; conditions: ATCC 9027, 18 h
Experimental: as §2

[10] = system: Staphylococcus aureus ATCC 25923; format: cell-based; conditions: ATCC 25923, 18 h
Experimental: as §2

[11] = system: Escherichia coli ATCC 25922; format: cell-based; conditions: ATCC 25922, 18 h
Experimental: as §2

[12] = system: Enterococcus faecalis ATCC 29212; test: MBFIC assay (biofilm formation inhibition, resazurin); format: cell-based; conditions: ca. 5 × 10^8 CFU/mL in MHB II, 37 °C, 18 h, visual, triplicate; for MBFIC E. faecalis, CL: contact lenses (CL, Etafilcon A hydrogel) in 24-well plates; for MBFIC E. faecalis, PS: polystyrene plates (PS), 96-well
Experimental: (§3) To determine the inhibitory effect of antimicrobials on the formation of biofilm on hydrophobic surfaces, the bacterial suspensions of strains (initial inoculum of ca. 5 × 10^8 CFU/mL in MHB II medium supplemented with antimicrobials) were cultured on 96-well PS at 37 °C for 18 h under aerobic conditions. After incubation, the suspensions were aspirated, and the wells were rinsed three times with sterile phosphate buffer PBS (AppliChem, Darmstadt, Germany) in order to remove the planktonic cells. Resazurin (final concentration per sample = 0.005%) was applied as a cell viability reagent for reading the results. In contact with the living cells, the dye is metabolized by bacterial dehydrogenases, resulting in a reduction of blue resazurin to pink resorufin. All assays were performed in triplicate and included the growth controls (positive controls: bacterial suspensions without antimicrobials) and the sterility controls (negative controls: a sterile MBH medium). After 1h of incubation, a visual evaluation of results was made. […] In a preliminary study, it was established that the application of lipopeptides at a concentration found active from visual evaluation caused the reduction of bacterial metabolism to approximately 10% (or less) of the positive control once the results were evaluated with a spectrophotometer. After 1 h of incubation with the dye, absorbance was measured at 570 and 600 nm using a microplate reader (Thermo Fisher Scientific, Waltham, MA, USA). The metabolic activity of bacteria in the samples was measured according to the formula presented in the previous paper.
(§4) The MBFIC assay with CL was applied in order to access the influence of lipopeptides on the biofilm formation on hydrogel surfaces. The entire sterile CL (1-Day Acuvue Moist, containing Etafilcon A., purchased from Johnson & Johnson (Vision Care, Jacksonsville, FL, USA), were placed in 24-well PS (Orange Scientific, Braine-l’ Alleud, Belgium) and the MBFICs were determined according to the above protocol.

[13] = system: Staphylococcus epidermidis ATCC 14990; test: as above; format: cell-based; conditions: ca. 5 × 10^8 CFU/mL in MHB II, 37 °C, 18 h, resazurin, visual, triplicate; for MBFIC S. epidermidis, CL: contact lenses (CL, Etafilcon A hydrogel) in 24-well plates; for MBFIC S. epidermidis, PS: polystyrene plates (PS), 96-well
Experimental: as §3, §4

[14] = system: Pseudomonas aeruginosa ATCC 9027; test: as above; format: cell-based; conditions: ca. 5 × 10^8 CFU/mL in MHB II, 37 °C, 18 h, visual, triplicate; for MBFIC P. aeruginosa, CL: contact lenses (CL, Etafilcon A hydrogel) in 24-well plates; for MBFIC P. aeruginosa, PS: polystyrene plates (PS), 96-well
Experimental: as §3, §4

[15] = system: Staphylococcus aureus ATCC 25923; test: as above; format: cell-based; conditions: ca. 5 × 10^8 CFU/mL in MHB II, 37 °C, 18 h, resazurin, visual, triplicate; for MBFIC S. aureus, CL: contact lenses (CL, Etafilcon A hydrogel) in 24-well plates; for MBFIC S. aureus, PS: polystyrene plates (PS), 96-well
Experimental: as §3, §4

[16] = system: Escherichia coli ATCC 25922; test: as above; format: cell-based; conditions: ca. 5 × 10^8 CFU/mL in MHB II, 37 °C, 18 h, visual, triplicate; for MBFIC E. coli, CL: contact lenses (CL, Etafilcon A hydrogel) in 24-well plates; for MBFIC E. coli, PS: polystyrene plates (PS), 96-well
Experimental: as §3, §4

[17] = system: Proteus mirabilis PCM 543; test: as above; format: cell-based; conditions: ca. 5 × 10^8 CFU/mL in MHB II, 37 °C, 18 h, visual, triplicate; for MBFIC P. mirabilis, CL: contact lenses (CL, Etafilcon A hydrogel) in 24-well plates; for MBFIC P. mirabilis, PS: polystyrene plates (PS), 96-well
Experimental: as §3, §4

[18] = RP-HPLC retention to evaluate the hydrophobicity of lipopeptides; format: physicochemical; conditions: chromatographic, Luna C18(2) 3.0 × 100 mm, 5.0 µm, linear 20–80% acetonitrile in water over 10 min, 0.1% formic acid, 0.5 mL/min, UV 214 nm, used to evaluate hydrophobicity
Experimental: The crude peptide was lyophilized and subsequently purified by RP-HPLC. The purifications were carried out on a Phenomenex Gemini-NX C18 column (21.20 × 100 mm, 5.0 µm particle size, and 110 Å pore size). Acetonitrile and water, both containing 0.1% of TFA, were used as the mobile phase. UV detection at 214 nm was used. The crude peptides were eluted with a linear 20–80% acetonitrile gradient in deionized water over 60 min at a flow rate of 10.0 mL/min. The purity and identity of the peptides were confirmed with LC-MS analysis. A Waters Alliance e2695 RP-HPLC system (Waters, Milford, MA, USA) with Waters 2998 PDA (Waters, Milford, MA, USA) and Acquity QDA detectors (Empower®3 software, Database Version 7.21.00.00) was used. All analyses were carried out on a Phenomenex, Luna C18(2) column (3.0 × 100 mm, 5.0 µm particle size, 100 Å pore size). The samples were analyzed with a linear 20–80% acetonitrile gradient in deionized water over 10 min at a flow rate of 0.5 mL/min with UV detection at 214 nm. Both eluents contained 0.1% (v/v) of formic acid. The pure fractions (>95%, by HPLC analysis) were collected and lyophilized. The retention time and percentage of ACN (%) at which each peptide was eluted are included in Table 1 to evaluate the hydrophobicity of lipopeptides. The identity of all compounds was confirmed using mass spectrometry (Waters Alliance e2695 system with Acquity QDA detector, Waters, Milford, MA, USA) with electrospray ionization in positive ion mode (ESI-MS). In this mode, a proton is attached to basic moieties (amine groups, guanidine groups). The theoretical mass of the peptide was calculated and then expected ions (m/z—mass to charge ratio) were compared to measured m/z. The results are presented in Table 1, and mass spectra are presented in the Supplementary Materials.

EC biofilm = conditions: cited from earlier work
Text: (§5) They were ineffective against PM, which was difficult to eradicate with peptides (and antibiotics) in previously performed studies. PM can cause infections of the urinary tract, skin, subcutaneous tissue, and wounds. PM is known as a biofilm former, and an evident increase of PM resistance to broad-spectrum fluoroquinolones and cephalosporins has been observed. In the previous study, mature PM b ...

PA biofilm = conditions: cited from earlier work
Text: as §5

SA biofilms = system: SA biofilms; design: method as in PMID 24779193; conditions: cited from earlier work
PM biofilm = conditions: cited from earlier work
Text: as §5

| MIC E. faecalis [7] [µg/mL] | MIC S. epidermidis [8] [µg/mL] | MIC P. aeruginosa [9] [µg/mL] | MIC S. aureus [10] [µg/mL] | MIC E. coli [11] [µg/mL] | Compound | MBEC E. faecalis, CL [1] | MBEC S. epidermidis, CL [2] | MBEC P. aeruginosa, CL [3] | MBEC S. aureus, CL [4] [µg/mL] | MBEC E. coli, CL [5] | MBEC P. mirabilis, CL [6] | MBFIC E. faecalis, CL [12] | MBFIC E. faecalis, PS [12] | MBFIC S. epidermidis, CL [13] [µg/mL] | MBFIC S. epidermidis, PS [13] [µg/mL] | MBFIC P. aeruginosa, CL [14] | MBFIC P. aeruginosa, PS [14] | MBFIC S. aureus, CL [15] [µg/mL] | MBFIC S. aureus, PS [15] [µg/mL] | MBFIC E. coli, CL [16] [µg/mL] | also measured |
| --- | --- | --- | --- | --- | --- | --- | --- | --- | --- | --- | --- | --- | --- | --- | --- | --- | --- | --- | --- | --- | --- |
| 64 (≈ 132 µM) | 32 (≈ 66.2 µM) | 512 (≈ 1060 µM) | 64 (≈ 132 µM) | 512 (≈ 1060 µM) | CCCCCCCCCCCC(=O)N[C@@H](CCCCN)C(=O)N[C@@H](CCCNC(=N)N)C(N)=O [Lipopeptide 2, C12-KR-NH2] (Lauroyl-Lys-Arg-NH2) | 128 µg/mL | 256 µg/mL | >512/>512 μg/mL | > 512 | 512 µg/mL | >512/>512 μg/mL | 512/512 μg/mL | 512/512 μg/mL | 32 | 16 | 512/512 μg/mL | 512/512 μg/mL | 128 | 64 | 128 | MBFIC E. coli, PS [16]: 512 µg/mL; MBFIC P. mirabilis, CL [17]: >512/512 μg/mL; MBFIC P. mirabilis, PS [17]: >512/512 μg/mL; % ACN at which the peptide was eluted [18]: 33.9%; tR' (adjusted retention time) [18]: 2.32 min |
| 256 (≈ 208 µM) | 128 (≈ 104 µM) | 256 (≈ 208 µM) | 256 (≈ 208 µM) | 256 (≈ 208 µM) | CCCCCCCCCCCCCCCC(=O)N[C@@H](CCCCN)C(=O)N[C@@H](CCCCN)C(=O)N[C@@H](CSSC[C@H](NC(=O)[C@H](CCCCN)NC(=O)[C@H](CCCCN)NC(=O)CCCCCCCCCCCCCCC)C(N)=O)C(N)=O [Lipopeptide 6, C16-KKC-NH2] (I: Palmitoyl-Lys-Lys-Cys-NH2 / II: Palmitoyl-Lys-Lys-Cys-NH2; disulfide I:3-II:3) | 512/512 μg/mL | 256/256 μg/mL | >512/>512 μg/mL | 512 | 512/512 μg/mL | >512/>512 μg/mL | 256/256 μg/mL | 256/256 μg/mL | 64 | 256 | 256 µg/mL | 512 µg/mL | 64 | 256 | 128 | MBFIC E. coli, PS [16]: 512 µg/mL; MBFIC P. mirabilis, CL [17]: >512/512 μg/mL; MBFIC P. mirabilis, PS [17]: >512/512 μg/mL; % ACN at which the peptide was eluted [18]: 47.8%; tR' (adjusted retention time) [18]: 4.63 min |
| – | – | – | – | – | O=C(N[C@H](CO)[C@H](O)c1ccc([N+](=O)[O-])cc1)C(Cl)Cl [chloramphenicol] | – | – | – | – | – | – | – | – | – | – | – | – | – | – | – | activity against EC biofilms (EC biofilm): rather weak activity; activity against PA biofilm (PA biofilm): weak antibiofilm agents; susceptibility of SA biofilms (SA biofilms): resistant |
| – | – | – | – | – | O=C(O)c1cn(C2CC2)c2cc(N3CCNCC3)c(F)cc2c1=O [ciprofloxacin] | – | – | – | – | – | – | – | – | – | – | – | – | – | – | – | effective concentration against EC biofilm (EC biofilm): 1 µg/mL; concentration eliminating PA biofilm (PA biofilm; 3-day-old structures): 4 µg/mL; susceptibility of mature PM biofilms (PM biofilm): resistant; susceptibility of SA biofilms (SA biofilms): resistant |
| – | – | – | – | – | C16-KK-NH2 [Lipopeptide C16-KK-NH2] | – | – | – | – | – | – | – | – | – | – | – | – | – | – | – | concentration eradicating the PM biofilm (PM biofilm; mature PM biofilms): 512 µg/mL |
